Values of other authors, collected in patent US12011496B2, “Topical macqui berry formulation” (Tracie Martyn International, Inc., priority 2005, dated 2024).
pIC50: −log10 of the molar value.

What was measured:
[1] = antioxidant properties
[2] = animal studies
[3] = using only natural ingredients (botanicals, antioxidants, coffe oil and microfine zinc oxide)

With `O=C(/C=C/c1ccc(O)c(O)c1)O[C@H](Cc1ccc(O)c(O)c1)C(=O)O` [Rosmarinic acid] as the compound, how does the pIC50 [1] read?
Its pIC50 is 6.13.

Which “safety at dosages above 500 mg/kg body weight” value [2] does the source give for `NCCC(=O)N[C@@H](Cc1cnc[nH]1)C(=O)O` [Carnosine, β-alanyl-L-histidine] here?
Its value is “safe”.

Which oral psychotropic dose does the source give for `C=CCc1cc(OC)c2c(c1)OCO2` [myristicin, 3-methoxy,4,5-methylendioxy-allylbenzene] here?
Its oral psychotropic dose is 400 mg.

Which spf [3] does the source give for `COc1ccc(C=CC(=O)OCCC(C)C)cc1` [isoamyl-p-methoxycinnamate] here?
Its spf is “greater than 30”.
